Reference: patent US20070227557A1, “THICKENED SURFACTANT-FREE CLEANSING AND MULTIFUNCTIONAL LIQUID COATING COMPOSITIONS CONTAINING NONREACTIVE ABRASIVE SOLID PARTICLES AND AN ORGANOSILANE QUATERNARY COMPOUND AND METHODS OF USING” (priority 2005, published 2007)

Assay: Thickening / thixotropy of aqueous mixtures
Assay type: physicochemical
Conditions: standard test formulation
Protocol: “thixotropic” or “thixotropically” means, with reference to a thickened composition, when applied to a vertical surface, it will cling until disturbed by wiping or massaging in biomechanical cleansing.
The sodium dodecylbenzene sulfonate base employed in Examples 34-46 was prepared as follows: 90.07% (Wt.) of deionized water was placed in the blender beaker and 1.104% sodium hydroxide pellets added and the mixture stirred until all sodium hydroxide dissolved. 8.826% of dodecylbenzene sulfonic acid (98% purity) was added slowly with good stirring until all the dodecylbenzene sulfonic acid dissolved (reacted with the sodium hydroxide). The pH of the resulting solution was […]. The final solution contained 9.42% sodium dodecylbenzene sulfonate. Approximately 450 gms of the base, containing 408 gms of water and 42.4 gms of the sodium dodecylbenzene sulfonate, were used in all the examples of TABLE VI. 124 gms of aluminum oxide grit (A2-325 and P-6 grades from Altmatis) were employed in the compositions of TABLE VI.
The alkyl alcohol ethoxylates were added slowly with good mixing employing a Silverson L4RT-A laboratory mixer with the pump head mixer. As the mixture thickened, addition of the alkyl alcohol ethoxylates was slowed until the thickened mixture had the consistency of whipped cream. If the desired thickening was achieved, it was so noted as “YES”, if not, it was noted as “NO”.

| Compound | formation of stable thickened compositions |
| --- | --- |
| sodium alkyl(C11-16) sulfonate | did not result in stable thickened compositions |
| CCCCCCCCCCCCc1ccc(S(=O)(=O)[O-])cc1.[Na+] [sodium docecylbenzene sulfonate] | did form stable thickened compositions |
| CCCCCCCCCCCCS(=O)(=O)[O-].[Na+] [sodium lauryl (C12) sulfonate] | did not result in stable thickened compositions |
| CCCCCCCCS(=O)(=O)[O-].[Na+] [sodium octane sulfonate] | did not result in stable thickened compositions |
